Measured values published in patent US20220054469A1, “FARNESOID X RECEPTOR AGONISTS AND USES THEREOF” (Metacrine, Inc., priority 2018, published 2022).

target: T1, hFXR (Homo sapiens, UniProt Q96RI1); assay: In Vitro FXR Assay (TK); type: cell-based; conditions: CV-1 cells transfected with hFXR, hRXR, TK-ECRE-luc and pCMX-YFP; incubated with compound for 18 hrs; luminescence
T1 construct: expressed in transfected cells; host or cells: CV-1 cells
T1 sequence (Q96RI1 1-486): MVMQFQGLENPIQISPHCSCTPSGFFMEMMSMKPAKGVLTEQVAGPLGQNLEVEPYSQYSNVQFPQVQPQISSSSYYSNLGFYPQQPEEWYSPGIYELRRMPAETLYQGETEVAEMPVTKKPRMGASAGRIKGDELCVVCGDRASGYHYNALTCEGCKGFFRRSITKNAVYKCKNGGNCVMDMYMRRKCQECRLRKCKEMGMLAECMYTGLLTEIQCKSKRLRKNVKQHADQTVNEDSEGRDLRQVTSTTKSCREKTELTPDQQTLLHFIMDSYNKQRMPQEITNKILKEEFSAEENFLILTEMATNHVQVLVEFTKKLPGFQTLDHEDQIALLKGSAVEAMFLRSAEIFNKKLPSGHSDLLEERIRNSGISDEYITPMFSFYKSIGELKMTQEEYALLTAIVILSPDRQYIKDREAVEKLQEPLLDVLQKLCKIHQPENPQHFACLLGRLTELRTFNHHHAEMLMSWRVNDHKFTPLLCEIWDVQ
T1 sequence (P19793 1-462 partner): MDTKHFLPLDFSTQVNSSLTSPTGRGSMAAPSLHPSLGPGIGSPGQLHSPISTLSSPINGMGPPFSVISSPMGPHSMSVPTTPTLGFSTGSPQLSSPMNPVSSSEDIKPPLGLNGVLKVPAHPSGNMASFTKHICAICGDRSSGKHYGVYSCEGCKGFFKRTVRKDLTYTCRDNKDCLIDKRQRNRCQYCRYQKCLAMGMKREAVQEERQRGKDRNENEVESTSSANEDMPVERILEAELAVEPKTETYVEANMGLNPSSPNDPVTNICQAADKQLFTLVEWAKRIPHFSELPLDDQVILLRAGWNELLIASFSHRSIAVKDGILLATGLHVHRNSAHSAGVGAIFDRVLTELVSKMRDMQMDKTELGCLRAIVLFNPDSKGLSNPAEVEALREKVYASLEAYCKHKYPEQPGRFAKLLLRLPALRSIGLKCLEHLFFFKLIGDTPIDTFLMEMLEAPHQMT
Description: Example B-1: In Vitro FXR Assay (TK)
CV-1 cells were seeded at a density of 2,000,000 cells in a T175 flask with DMEM+10% charcoal double-stripped FBS and incubated at 37° C. in 5% CO2 for 18 h (O/N).
After 18 h of incubation, the medium in the T175 flask was changed with fresh DMEM+10% charcoal super-stripped serum. In a polypropylene tube, 2500 μL OptiMEM (Life Technologies, Cat #31985-062) was combined with expression plasmids for hFXR, hRXR, TK-ECRE-luc and pCMX-YFP. The tube was then briefly vortexed and incubated at room temperature for 5 minutes. Transfection reagent (X-tremeGENE HP from Roche, Cat #06 366 236 001) was added to the OptiMEM/plasmid mixture vortexed and incubated at room temperature for 20 minutes. Following incubation, the transfection reagent/DNA mixture complex was added to cells in the T175 flask and the cells were incubated at 37° C. in 5% CO2 for 18 h (O/N).
Compounds were serially diluted in DMSO and added to transfected CV-1 cells. The cells were then incubated for 18 hrs. The next day cells were lysed and examined for luminescence.

Row | EC50 [nM] | SMILES
1 | 1000 to 10000 | COc1ccc(C23CCC(CN(C(=O)[C@@H]4CCC[C@H](C(=O)O)C4)c4cc(-c5cnn(C(C)C)c5)ccn4)(CC2)CC3)cc1C (relative stereo) [Compound 3.05, cis-3-((4-(1-Isopropyl-1H-pyrazol-4-yl)pyridin-2-yl)((4-(4-methoxy-3-methylphenyl)bicyclo[2.2.2]octan-1-yl)methyl)carbamoyl)cyclohexanecarboxylic acid]
2 | ≤ 50 | COc1ccc([C@H]2CC[C@H](CN(c3cccc(-c4cnn(C(C)(C)C)c4)c3)C(=O)[C@H]3CC[C@H](CC(=O)O)CC3)CC2)cc1C [Compound 2.04, 2-(trans-4-((3-(1-(tert-Butyl)-1H-pyrazol-4-yl)phenyl)((trans-4-(4-methoxy-3-methylphenyl)cyclohexyl)methyl)carbamoyl)cyclohexyl)acetic acid]
3 | 50 to 1000 | COc1c(C)cc(C23CCC(CN(c4cc(-c5cnn(C(C)C)c5)ncn4)C(=O)[C@H]4CC[C@H](CC(=O)O)CC4)(CC2)CC3)cc1C [Compound 4.08, trans-2-(4-((6-(1-Isopropyl-1H-pyrazol-4-yl)pyrimidin-4-yl)((4-(4-methoxy-3,5-dimethylphenyl)bicyclo[2.2.2]octan-1-yl)methyl)carbamoyl)cyclohexyl)acetic acid]
4 | 50 to 1000 | COc1ccc(C23CCC(CN(C(=O)[C@@H]4CCC[C@@H](CC(=O)O)C4)c4cc(-c5cnn(C(C)C)c5)ccn4)(CC2)CC3)cc1C (relative stereo) [Compound 5.01, trans-2-(3-((4-(1-Isopropyl-1H-pyrazol-4-yl)pyridin-2-yl)((4-(4-methoxy-3-methylphenyl)bicyclo[2.2.2]octan-1-yl)methyl)carbamoyl)cyclohexyl)acetic acid]
5 | 50 to 1000 | COc1ccc(C23CCC(CN(c4cncc(-c5cnn(C(C)C)c5)n4)C(=O)[C@H]4CC[C@H](CC(=O)O)CC4)(CC2)CC3)cc1C (relative stereo) [Compound 4.10, trans-2-(4-((6-(1-Isopropyl-1H-pyrazol-4-yl)pyrazin-2-yl)((4-(4-methoxy-3-methylphenyl)bicyclo[2.2.2]octan-1-yl)methyl)carbamoyl)cyclohexyl)acetic acid]
6 | ≤ 50 | COc1ccc(C23CCC(CN(c4cccc(-c5cnn(C(C)(C)C)c5)c4)C(=O)[C@H]4CC[C@H](C(=O)O)CC4)(CC2)CC3)cc1C [Compound 2.03, trans-4-((3-(1-(tert-Butyl)-1H-pyrazol-4-yl)phenyl)((4-(4-methoxy-3-methylphenyl)bicyclo[2.2.2]octan-1-yl)methyl)carbamoyl)cyclohexanecarboxylic acid]
7 | ≤ 50 | CC(C)n1cc(-c2cccc(N(CC34CCC(c5ccc(N(C)C)nc5)(CC3)CC4)C(=O)[C@H]3CC[C@H](CC(=O)O)CC3)c2)cn1 [Compound 4.14, trans-2-(4-(((4-(6-(Dimethylamino)pyridin-3-yl)bicyclo[2.2.2]octan-1-yl)methyl)(3-(1-isopropyl-1H-pyrazol-4-yl)phenyl)carbamoyl)cyclohexyl)acetic acid]
8 | 50 to 1000 | COc1ccc(C23CCC(CN(c4cc(-c5cnn(C(C)(C)C)c5)ncn4)C(=O)[C@H]4CC[C@H](CC(=O)O)CC4)(CC2)CC3)cc1C [Compound 4.07, trans-2-(4-((6-(1-(tert-Butyl)-1H-pyrazol-4-yl)pyrimidin-4-yl)((4-(4-methoxy-3-methylphenyl)bicyclo[2.2.2]octan-1-yl)methyl)carbamoyl)cyclohexyl)acetic acid]
9 | ≤ 50 | COc1ncc(C23CCC(CN(c4cccc(-c5cnn(C(C)C)c5)c4)C(=O)[C@H]4CC[C@H](CC(=O)O)CC4)(CC2)CC3)cc1C [Compound 4.11, trans-2-(4-((3-(1-Isopropyl-1H-pyrazol-4-yl)phenyl)((4-(6-methoxy-5-methylpyridin-3-yl)bicyclo[2.2.2]octan-1-yl)methyl)carbamoyl)cyclohexyl)acetic acid]
10 | ≤ 50 | CN(C)c1ccc(C23CCC(CN(c4cccc(-c5cnn(C(C)(C)C)c5)c4)C(=O)[C@H]4CC[C@H](CC(=O)O)CC4)(CC2)CC3)cn1 [Compound 2, trans-2-(4-((3-(1-(tert-Butyl)-1H-pyrazol-4-yl)phenyl)((4-(6-(dimethylamino)pyridin-3-yl)bicyclo[2.2.2]octan-1-yl)methyl)carbamoyl)cyclohexyl)acetic acid]
11 | 50 to 1000 | COc1ccc(C23CCC(CN(c4cc(-c5noc(C(C)C)n5)ccn4)C(=O)[C@H]4CC[C@H](CC(=O)O)CC4)(CC2)CC3)cc1C [Compound 4.21, trans-2-(4-((4-(5-lsopropyl-1,2,4-oxadiazol-3-yl)pyridin-2-yl)((4-(4-methoxy-3-methylphenyl)bicyclo[2.2.2]octan-1-yl)methyl)carbamoyl)cyclohexyl)acetic acid]
12 | ≤ 50 | COc1ccc(C23CCC(CN(c4cccc(-n5cnc(C6CC6)c5)c4)C(=O)[C@H]4CC[C@H](CC(=O)O)CC4)(CC2)CC3)cc1C [Compound 4.29, trans-2-(-4-((3-(4-Cyclopropyl-1H-imidazol-1-yl)phenyl)((4-(4-methoxy-3-methylphenyl)bicyclo[2.2.2]octan-1-yl)methyl)carbamoyl)cyclohexyl)acetic acid]
13 | ≤ 50 | COc1ccc(C23CCC(CN(C(=O)[C@@H]4CCC[C@H](CC(=O)O)C4)c4cc(-c5cnn(C(C)C)c5)ccn4)(CC2)CC3)cc1C (relative stereo) [Compound 5, cis-2-(3-((4-(1-isopropyl-1H-pyrazol-4-yl)pyridin-2-yl)((4-(4-methoxy-3-methylphenyl)bicyclo[2.2.2]octan-1-yl)methyl)carbamoyl)cyclohexyl)acetic acid]
14 | 50 to 1000 | COc1ccc([C@H]2CC[C@H](CN(c3cccc(-c4cnn(C(C)(C)C)c4)c3)C(=O)[C@H]3CC[C@H](C(=O)O)CC3)CC2)cc1C [Compound 2.02, trans-4-((3-(1-(tert-Butyl)-1H-pyrazol-4-yl)phenyl)((trans-4-(4-methoxy-3-methylphenyl)cyclohexyl)methyl)carbamoyl) cyclohexanecarboxylic acid]
15 | ≤ 50 | COc1ccc(C23CCC(CN(c4cc(-c5coc(C(C)(C)C)n5)ccn4)C(=O)[C@H]4CC[C@H](CC(=O)O)CC4)(CC2)CC3)cc1C [Compound 4.18, trans-2-(4-((4-(2-(tert-Butyl)oxazol-4-yl)pyridin-2-yl)((4-(4-methoxy-3-methylphenyl)bicyclo[2.2.2]octan-1-yl)methyl)carbamoyl)cyclohexyl)acetic acid]
16 | 50 to 1000 | COc1ccc(C23CCC(CN(c4cc(-n5ccc(C(C)C)n5)ccn4)C(=O)[C@H]4CC[C@H](CC(=O)O)CC4)(CC2)CC3)cc1C [Compound 4.24, trans-2-(4-((4-(3-Isopropyl-1H-pyrazol-1-yl)pyridin-2-yl)((4-(4-methoxy-3-methylphenyl)bicyclo[2.2.2]octan-1-yl)methyl)carbamoyl)cyclohexyl)acetic acid]
17 | 50 to 1000 | COc1ccc(C23CCC(CN(c4cc(-n5cnc(C(C)C)c5)ccn4)C(=O)[C@H]4CC[C@H](CC(=O)O)CC4)(CC2)CC3)cc1C [Compound 4.25, trans-2-(4-((4-(4-Isopropyl-1H-imidazol-1-yl)pyridin-2-yl)((4-(4-methoxy-3-methylphenyl)bicyclo[2.2.2]octan-1-yl)methyl)carbamoyl)cyclohexyl)acetic acid]
18 | ≤ 50 | COc1ccc(C23CCC(CN(c4cc(-c5cnn(C(C)C)c5)ccn4)C(=O)[C@H]4CC[C@H](CCC(=O)O)CC4)(CC2)CC3)cc1C [Compound 1, trans-3-(4-((4-(1-Isopropyl-1H-pyrazol-4-yl)pyridin-2-yl)((4-(4-methoxy-3-methylphenyl)bicyclo[2.2.2]octan-1-yl)methyl)carbamoyl)cyclohexyl)propanoic acid]
